Data from patent US11529362B2, “Physiologically balanced injectable formulations of fosnetupitant” (HELSINN HEALTHCARE SA, priority 2016, dated 2022).
Read-outs that look alike come from different tables or passages of the source.

What was measured:
[1] = Akynzeo prescribing information, cited from earlier work
[2] = presence of EDTA, in proportion to its concentration in solution
[3] = p-Netu solubility studies; type: physicochemical; conditions: in water at acidic pH values less than 7.0
Description: A study was undertaken to determine the maximum allowable concentration of netupitant in aqueous solutions of p-Netu, above which unacceptable precipitation is observed.

Cc1ccccc1-c1cc(N2CCN(C)CC2)ncc1N(C)C(=O)C(C)(C)c1cc(C(F)(F)F)cc(C(F)(F)F)c1 [netupitant, 2-(3,5-bis(trifluoromethyl)phenyl)-N,2-dimethyl-N-(6-(4-methylpiperazin-1-yl)-4-(o-tolyl)pyridine-3-yl)propanamide]
systemic exposure ([1]; dose increase from 10 mg to 300 mg): greater than dose-proportional increase | systemic exposure ([1]; dose increase from 300 mg to 450 mg): dose-proportional increase

O=C([O-])CN(CCN(CC(=O)[O-])CC(=O)O)CC(=O)O.[Na+].[Na+] [EDTA, Disodium edetate]
conversion of p-Netu to 14-Netu [2]: reduced

Cc1ccccc1-c1cc(N2CC[N+](C)(COP(=O)([O-])O)CC2)ncc1N(C)C(=O)C(C)(C)c1cc(C(F)(F)F)cc(C(F)(F)F)c1 [p-Netu, 4-(5-(2-(3,5-bis(trifluoromethyl)phenyl)-N,2-dimethylpropanamido)-4-(o-tolyl)pyridin-2-yl)-1-methyl-1-((phosphonooxy)methyl) piperazin-1-ium]
p-Netu solubility [3]: drops significantly
